Columns and labels:
[1] = target: T1, G12C GTPγS KRAS (aa2-184) (Homo sapiens, UniProt P01116, G12C); assay: SPR binding (Biacore), GTPγS-loaded KRAS G12C; details: for Kd: 10° C., geometric mean when n>1, read-out: KRasGTPgS G12C SPR KD; for KRasGTPgS G12C SPR t1/2: dissociative half-life, t1/2=0.693/koff
T1 construct: G12CGDP KRAS (aa2-184); made in house
Source text: (§1) No additional regeneration was used.
(§2) Compound dissociation was monitored for at least 3600 seconds. […] No additional regeneration was used.

[2] = target: T2, G12D GTPγS KRAS (aa1-185) (Homo sapiens, UniProt P01116, G12D); assay: SPR binding (Biacore), GTPγS-loaded KRAS G12D; details: for Kd: 10° C., geometric mean when n>1, read-out: KRasGTPgS G12D SPR KD; for KRasGTPgS G12D SPR t1/2: dissociative half-life, t1/2=0.693/koff
T2 construct: G12DGDP KRAS (aa1-185); made in house
Source text: as §1, §2

[3] = test system: H358 (non-small cell lung cancer cell line); assay: KRAS Cell Titer Glo (CTG) viability assay, H358; type: cell-based; details: H358, 7-day, geometric mean when n>1
Source text: (§3) The CellTiter-Glo® (CTG) Luminescent Cell Viability Assay is a homogeneous method of determining the number of viable cells in culture based on quantitation of the ATP present, an indicator of metabolically active cells. The CTG is designed for use with multi-well formats, making it ideal for automated high-throughput screening (HTS), cell proliferation and cytotoxicity assays. The homogeneous assay procedure involves adding the single reagent (CellTiter-Glo® Reagent) directly to cells cultured in serum-supplemented medium. Cell washing, removal of medium and multiple pipetting steps are not required. The system detects as few as 15 cells per well in a 384-well format in 10 minutes after adding reagent and mixing.
(§4) Cells are grown in humidified 5% CO2 incubator at 37° C. using the culture conditions outlined below. All cell culture media reagents were purchased from Gibco. Cell lines purchased from ATCC: H358 (non-small cell lung cancer cell line), SW620 (colorectal cancer cell line), PANC08.13 (RPM11640+10% FBS+10 units/ml Insulin, pancreatic cancer cell line). Test and control compounds are dispensed as nanoliter drops according to desired final concentrations in 0.1% DMSO using Echo Acoustic Dispenser onto 384 assay plates (Corning, Cat #3764) prior to cell seeding. Cells were seeded in 40 μL volume per well at the following cell densities (cells per well): H358 (300), SW620 (750), PANC 08.13 (600). Cells are incubated in the presence of compound for 7-days. Viability is determined on Day 7 using CellTiter-Glo® (CTG) Luminescent Cell Viability Assay (Promega). CTG is added to a final volume of 20 μl per well and incubated at room temperature for 15 minutes before luminescence is captured using an EnVision Reader with LUM384 US protocol. Data is analyzed using Activity Base to determine compound response and will be represented either as a percent effect (PCTEFF) or percent control (PCTOCTL) as described: Zero percent effect control (ZPE) (Negative control)—100% DMSO. Hundred percent effect (HPE) (Positive control)—1 μM Trametinib (GSK1120212, MEK inhibitor) (4 nl of 10 mM and 36 nl of DMSO per well). The following equations/nomenclature are used (% Effect; PCTEFF) and (% of Control; PCTOCTL): PCTEFF: 100*(Raw_Data_Value−HPE/ZPE−HPE), PCTOCTL: 100*Raw_Data_Value/User_Defined_Array), where the User_Defined_Array is either summarized HPE or ZPE.

[4] = target: T3, G12V GTPγS KRAS (aa2-184) (Homo sapiens, UniProt P01116, G12V); assay: SPR binding (Biacore), GTPγS-loaded KRAS G12V; details: for Kd: 10° C., geometric mean when n>1, read-out: KRasGTPgS G12V SPR KD; for KRasGTPgS G12V SPR t1/2: dissociative half-life, t1/2=0.693/koff
T3 construct: G12VGDP KRAS (aa2-184); made in house
Source text: as §1, §2

[5] = target: G12V GDP KRAS (aa2-184) (Homo sapiens, UniProt P01116, G12V); assay: biochemical
Method: (§5) The binding affinity and kinetics were measured by Surface Plasmon Resonance (SPR) using Biacore 8K or 8K+ (Cytiva, Marlborough, MA) instruments. Recombinant, C-terminal site-specific biotinylated, wild-type (WT) KRASGDP (aa1-185), G12DGDP KRAS (aa1-185), G12CGDP KRAS (aa2-184), G12VGDP KRAS (aa2-184), WT HRASGDP (aa2-184) and WT NRASGDP (aa2-185) proteins were purified in presence of 1 μM GDP. The GDP-loaded KRAS proteins then went through nucleotide exchange with GTPγS (a non-hydrolysable analog of GTP) in the presence of alkaline phosphatase beads to obtain WTGTPγS KRAS (aa1-185), G12DGTPγS KRAS (aa1-185), G12CGTPγS KRAS (aa2-184), G12VGTPγS KRAS (aa2-184), WT HRASGTPγS (aa2-184) and WT NRASGTPγS (aa2-185). Binding measurements were performed parallelly in sets of either WT/G12D/G12C/G12V KRAS or WT K/H/N RAS proteins in GDP- and/or GTPγS-loaded forms, respectively.
(§6) Biacore instrument was desorbed and docked with a Series S Sensor Chip SA. […] Compound binding kinetics were measured in either multi-cycle or single-cycle kinetic format.
(§7) A 2-fold, 10-point serial dilution of test compounds was set-up in a 96-well microplate (Greiner; Cat #650101) with a top concentration of either 10 μM or 100 μM. Binding kinetics was measured at 10° C. by injecting serial dilution of compounds onto both reference and RAS immobilized channels at a flow rate of 100 μL/min and association time of 90 seconds. Compound dissociation was monitored for at least 400 seconds during each cycle. […]
(§8) A 3-fold, 6-point serial dilution of compounds was set-up in a deep 96-well microplate (Greiner Bio; Cat #780201) with the highest concentration of 1 μM (concentration range: 0.004-1 μM). Binding kinetics was measured at 10° C. by injecting serial dilutions of compounds in increasing order onto reference as well as RAS immobilized channels at a flow rate of 100 μL/min and association time of 120 seconds. Compound dissociation was monitored for at least 3600 seconds. […]
(§9) Both MCK and SCK data were processed and analyzed using Biacore Insight evaluation software (Cytiva, Marlborough, MA)). […]

[6] = target: G12D GDP KRAS (aa1-185) (Homo sapiens, UniProt P01116, G12D); assay: biochemical
Method: as §5, §6, §7, §8, §9

[7] = target: G12C GDP KRAS (aa2-184) (Homo sapiens, UniProt P01116, G12C); assay: biochemical
Method: as §5, §6, §7, §8, §9

[8] = test system: SW620 (colorectal cancer cell line); assay: KRAS Cell Titer Glo (CTG) viability assay, SW620; type: cell-based; details: SW620, 7-day, geometric mean when n>1
Source text: as §3, §4

[9] = target: T4, wild-type (WT) KRAS GDP (aa1-185) (Homo sapiens, UniProt P01116); assay: SPR binding (Biacore), GDP-loaded WT KRAS; details: 10° C., geometric mean when n>1
T4 construct: wild-type (WT) KRASGDP (aa1-185); made in house
Source text: as §1, §2

[10] = target: T5, WT GTPγS KRAS (aa1-185) (Homo sapiens, UniProt P01116); assay: SPR binding (Biacore), GTPγS-loaded WT KRAS; details: for Kd: 10° C., geometric mean when n>1, read-out: KRasGTPgS SPR KD; for KRasGTPgS SPR t1/2: dissociative half-life, t1/2=0.693/koff
T5 construct: wild-type (WT) KRASGDP (aa1-185); made in house
Source text: as §1, §2

[11] = test system: PANC08.13 (pancreatic cancer cell line); assay: KRAS Cell Titer Glo (CTG) viability assay, Panc08.13; type: cell-based; details: Panc08.13, 7-day, geometric mean when n>1
Source text: as §3, §4

[12] = test system: KRAS G12C, KRAS G12D, and KRAS G12V receptors; assay: SPR binding, summary statement for KRAS mutants; details: alkylidenyl and/or haloalkylidenyl on R^1; statement in words
Source text: as §1, §2

[13] = test system: pancreatic cancer, non-small cell lung cancer, and colorectal cancer; assay: CTG assay, summary statement for cancer cell lines; type: cell-based; details: alkylidenyl and/or haloalkylidenyl on R^1; statement in words
Source text: as §3
Cells are grown in humidified 5% CO2 incubator at 37° C. using the culture conditions outlined below. All cell culture media reagents were purchased from Gibco. […] Viability is determined on Day 7 using CellTiter-Glo® (CTG) Luminescent Cell Viability Assay (Promega). CTG is added to a final volume of 20 μl per well and incubated at room temperature for 15 minutes before luminescence is captured using an EnVision Reader with LUM384 US protocol. Data is analyzed using Activity Base to determine compound response and will be represented either as a percent effect (PCTEFF) or percent control (PCTOCTL) as described: Zero percent effect control (ZPE) (Negative control)—100% DMSO. […]

[14] = Homo sapiens, PANC-08-13, 168 h

| Kd [1] [nM] | KRasGTPgS G12C SPR t1/2 [1] [h] | Kd [2] [nM] | KRasGTPgS G12D SPR t1/2 [2] [h] | IC50 ([3]; Homo sapiens, NCI-H358, 168 h) [nM] | Kd [4] [nM] | KRasGTPgS G12V SPR t1/2 [4] [h] | Kd [5] [nM] | Kd [6] [nM] | Kd [7] [nM] | IC50 ([8]; Homo sapiens, SW-620, 168 h) [nM] | Kd [9] [nM] | Kd [10] [nM] | KRasGTPgS SPR t1/2 [10] [h] | IC50 [11, 14] [nM] | binding affinities [12] | IC50 [3] [nM] | IC50 [8] [nM] | IC50 [11] [nM] | Compound | cellular activities against certain tumors [13] |
| --- | --- | --- | --- | --- | --- | --- | --- | --- | --- | --- | --- | --- | --- | --- | --- | --- | --- | --- | --- | --- |
| 0.372 | 11.0 | 0.404 | 3.6 | 13.1 | 0.316 | 8.9 | 0.286 | 0.289 | 0.067 | 18.7 | 0.04 | 0.475 | 6.0 | 2.7 |  |  |  |  | C#Cc1c(F)ccc2cc(O)cc(-c3nc4c5c(nc(OC[C@@]67CCCN6CC(=C)C7)nc5c3F)N3CCCC[C@H]3CO4)c12 [Example 36, 5-ethynyl-6-fluoro-4-[(8aS)-4-fluoro-2-{[(7aS)-2-methylidenetetrahydro-1H-pyrrolizin-7a(5H)-yl]methoxy}-8,8a,9,10,11,12-hexahydro-7-oxa-1,3,6,12a-tetraazabenzo[4,5]cyclohepta[1,2,3-de]naphthalen-5-yl]naphthalen-2-ol] |  |
| < 0.0145 | >192.7 | < 0.0061 | >192.7 | 1.2 | < 0.0097 | >192.7 |  |  |  | 2.3 |  | < 0.0106 | >192.7 | < 0.5 | may enhance |  |  |  | C#Cc1c(F)ccc2cc(O)cc(-c3nc4c5c(nc(OC[C@@]67CCCN6C/C(=C/F)C7)nc5c3F)N3CCCOC[C@H]3CO4)c12 [Example 34, 5-ethynyl-6-fluoro-4-[(8aS)-4-fluoro-2-{[(2E,7aS)-2-(fluoromethylidene)tetrahydro-1H-pyrrolizin-7a(5H)-yl]methoxy}-8a,9,12,13-tetrahydro-8H,11H-7,10-dioxa-1,3,6,13a-tetraazanaphtho[1,8-ab]heptalen-5-yl]naphthalen-2-ol] | may enhance |
| 0.205 | 17.6 | 0.119 | 9.9 |  | 0.172 | 12.7 |  |  |  |  |  | 0.168 | 12.7 |  |  | 3.9 | 6.6 | 1.1 | C#Cc1c(F)c(F)cc2cc(O)cc(-c3nc4c5c(nc(OC[C@@]67CCCN6C[C@H](F)C7)nc5c3F)N3CCCC[C@H]3CO4)c12 [Example 33, 5-ethynyl-6,7-difluoro-4-[(8aS)-4-fluoro-2-{[(2R,7aS)-2-fluorotetrahydro-1H-pyrrolizin-7a(5H)-yl]methoxy}-8,8a,9,10,11,12-hexahydro-7-oxa-1,3,6,12a-tetraazabenzo[4,5]cyclohepta[1,2,3-de]naphthalen-5-yl]naphthalen-2-ol] |  |
| 0.181 | 17.8 | 0.092 | 11.3 | 2.3 | 0.209 | 10.3 | 0.048 | 0.011 | 0.009 | 3.8 | 0.007 | 0.184 | 12.4 | < 0.7 |  |  |  |  | C=C1CN2CCC[C@@]2(COc2nc3c4c(nc(-c5cc(O)cc6ccc(F)c(CC)c56)c(F)c4n2)OC[C@@H]2COCCCN32)C1 [Example 35, 5-ethyl-6-fluoro-4-[(8aS)-4-fluoro-2-{[(7aS)-2-methylidenetetrahydro-1H-pyrrolizin-7a(5H)-yl]methoxy}-8a, 9,12,13-tetrahydro-8H,11H-7,10-dioxa-1,3,6,13a-tetraazanaphtho[1,8-ab]heptalen-5-yl]naphthalen-2-ol] |  |
| 3.02 | 0.4 | 1.27 | 0.4 | 40.5 | 2.07 | 0.4 | 0.056 | 0.018 | 0.01 | 138 | 0.015 | 3.5 | 0.3 | 18.3 |  |  |  |  | C#Cc1c(F)ccc2cc(O)cc(-c3nc4c5c(nc(OC[C@@]67CCCN6CC(=C)C7)nc5c3F)N(CC)CCO4)c12 [Example 37, 4-(10-ethyl-4-fluoro-2-{[(7aS)-2-methylidenetetrahydro-1H-pyrrolizin-7a(5H)-yl]methoxy}-9,10-dihydro-8H-7-oxa-1,3,6,10-tetraazacyclohepta[1,2,3-de]naphthalen-5-yl)-5-ethynyl-6-fluoronaphthalen-2-ol] |  |
|  |  |  |  | 115 |  |  |  |  |  | 136 |  |  |  | 19.8 |  |  |  |  | N#CC[C@@H]1CCCN(c2nc(OC[C@@]34CCCN3C[C@H](F)C4)nc3c(F)c(-c4cc(O)cc5ccc(F)c(F)c45)ncc23)C1 [Example 12, {(3S)-1-[7-(7,8-difluoro-3-hydroxynaphthalen-1-yl)-8-fluoro-2-{[(2R,7aS)-2-fluorotetrahydro-1H-pyrrolizin-7a(5H)-yl]methoxy}pyrido[4,3-d]pyrimidin-4-yl]piperidin-3-yl}acetonitrile] |  |

Source: US20260306506A1, “PYRIDO[4,3-D]PYRIMIDINE COMPOUNDS” (Pfizer Inc., priority 2023, published 2026)
